Measurements from patent US10854312B2, “Selective peptide antagonists” (BIONIZ, LLC, priority 2013, dated 2020).
“Also recorded” adds a separate entry of the source. No end group written: not given here.

What was measured:
Assay type in all cases: cell-based
[1] = system: human IL-21; assay: PT-18 h21Rα survival assay (apoptosis by Annexin V staining), IL-21; settings: hIL-21Rα-transfected PT-18 cells, 1 nM human IL-21, 5 μM BNZ132-1, PE-Annexin V flow cytometry
Description: (§1) FIG. 6A-FIG. 6E presents inhibitory spectrum of BNZ132-1 over γc- and non-γc-cytokines. […] Neutralizing antibodies against each cytokine (R & D systems, 5 μg ml^−1) were included as controls. After 20 h, the cells were pulsed with WST-1 (Clontech) and OD450 of each well was measured after 6 h. A 19-mer scrambled peptide was used as a negative control at 5 μM. The experiments were conducted in triplicate (applies to all experiments in FIG. 6A-FIG. 6E). The result represents one of at least three independent experiments (applies to all experiments in FIG. 6A-FIG. 6E). […] In PT-18 proliferation assay, PT-18β or PT-18h21Rα cells were withdrawn of mouse IL-3 for 12 h before the experiment. Cells were then incubated with 1 nM of mouse IL-4, mouse IL-9, or mouse IL-21 in the presence or absence of the indicated doses (μM) of BNZ132-1. Neutralizing antibodies to each cytokine (5 μg ml^−1, except for anti-mouse IL-21 polyclonal antibody which was used at 15 μg ml−1) and a scrambled control peptide (5 μM) were included as negative controls. WST-1 assay was conducted as described above. […] In PT-18 h21Rα survival assay, PT-18h21Rα cells are described in the text. […] Both parental and hIL-21Rα positive PT-18 cells were washed and incubated without IL-3 for 12 h before the assay. […] The Y-axis represents the cpm (count per minute) values measured by a β-counter. […]

[2] = system: human IL-7; assay: Human peripheral T-cell (PBMC) proliferation assay, IL-7; settings: ex vivo human primary T cells, 10 nM human IL-7
Description: as §1

[3] = molecular target: mouse IL-3 (Mus musculus, UniProt P01586); assay: PT-18β proliferation assay (3H-thymidine), non-γc cytokine IL-3; settings: 1 nM mouse IL-3, 15 μM BNZ132-1
[4] = system: mouse IL-9 signal; assay: Western blot of phosphorylation downstream of IL-9 in PT-18 cells; settings: 1 nM mouse IL-9, excess dose of BNZ132-1, 15 min
Description: PT-18 cells32 were fasted of IL-3 for 12 h prior to stimulation. Cells were stimulated with 1 nM mouse IL-4 or mouse IL-9 in the presence or absence of excess dose of BNZ132-1 ([…]) for 15 min and then cellular proteins were extracted. Phosphorylation of the indicated proteins was detected using phosphor-specific antibodies (Cell signaling), followed by ECL. IL-4 is the only γc-cytokine that induces the phosphorylation of STAT6. Note that only IL-4, but not IL-9, induced the tyrosine-phosphorylation of STAT6. […] Lanes: 1. no stimulation, 2. IL-4, 3. IL-4+BNZ132-1, 4. IL-9, 5. IL-9+BNZ132-1

[5] = system: human IL-2 signal; assay: Western blot of phosphorylation downstream of IL-2 in human PBMC / peripheral T cells
Description: FIG. 9C presents IL-2 signal in human PBMC was blocked by BNZ132-1. Human PBMCs were prepared (Ficoll-paque), activated (by PHA) expanded (by IL-2), and purified by magnetic negative selection as described in the methodology section. After 24 h of IL-2 depletion, the PBMCs were stimulated by 1 nM IL-2 in the presence or absence of BNZ132-1 (0.5 or 0.1 μM) for 20 min before the cellular protein extraction. Phosphorylation of individual proteins was visualized by phosphor-specific antibodies (Cell Signaling), followed by ECL. Lanes: 1. no stimulation, 2. IL-2 stimulation, 3. IL-2+BNZ132-1 (high dose), 4. IL-2+BNZ132-1 (low dose). In all blots, anti-Vinculin antibody (Sigma) was used to validate nearly-equal protein loading.

IKEFLQRFIHIVQSIINTS [BNZ132-1]
inhibition of IL-21-mediated protection from apoptotic death after IL-3 withdrawal [1]: did not counteract the effect of IL-21; also recorded: not inhibited; also recorded: no inhibition of IL-21
inhibition of IL-7-induced proliferation of ex vivo human T cells [2]: not significantly inhibited; also recorded: no inhibition of IL-7
inhibition of IL-3-induced proliferation of PT-18β cells [3]: did not inhibit; also recorded: no inhibition; also recorded: no inhibition of non-γc cytokines
inhibition of IL-9 signal (phosphorylation, STAT5) [4]: comprehensively inhibited
inhibition of IL-2 signal (phosphorylation) ([5]; human PBMC/peripheral T cells, 1 nM IL-2, BNZ132-1 0.5 or 0.1 μM, 20 min): comprehensively inhibited; also recorded: blocked
differential inhibition of individual signaling pathways at suboptimal dose ([5]; low dose BNZ132-1 (0.1 μM), IL-2, human peripheral T cells): Akt and p38 are more sensitive than Jak3 and STAT5
